Assay: molar heat capacity at constant pressure
Conditions: 101.33 kPa, Metastable crystal

O=P([O-])([O-])[O-].[Tb+3] [terbium orthophosphate]
Conditions	molar heat capacity at constant pressure [J/K/mol]
291.41 K, Vacuum adiabatic calorimetry	108
294.82 K, Vacuum adiabatic calorimetry	108.6
298.47 K, Vacuum adiabatic calorimetry	109.3
300 K, Vacuum adiabatic calorimetry	109.8
302.47 K, Vacuum adiabatic calorimetry	110
307.42 K, Vacuum adiabatic calorimetry	110.9
310 K, Vacuum adiabatic calorimetry	111.5
313.46 K, Vacuum adiabatic calorimetry	112.2
320 K, Vacuum adiabatic calorimetry	113.1
320.4 K, Vacuum adiabatic calorimetry	113.3
325 K, Vacuum adiabatic calorimetry	113.9
327.27 K, Vacuum adiabatic calorimetry	114.3
334.07 K, Vacuum adiabatic calorimetry	115.4
340 K, Small sample (50 mg) DSC	116.3
340.79 K, Vacuum adiabatic calorimetry	116.6
347.44 K, Vacuum adiabatic calorimetry	117.5
360 K, Small sample (50 mg) DSC	119
380 K, Small sample (50 mg) DSC	121.5
400 K, Small sample (50 mg) DSC	123.7
420 K, Small sample (50 mg) DSC	125.6
433.9 K, Small sample (50 mg) DSC	128.2
438.9 K, Small sample (50 mg) DSC	128.4
440 K, Small sample (50 mg) DSC	127.4
443.9 K, Small sample (50 mg) DSC	128.3
448.9 K, Small sample (50 mg) DSC	128.3
453.9 K, Small sample (50 mg) DSC	128.3
458.9 K, Small sample (50 mg) DSC	128.5
460 K, Small sample (50 mg) DSC	129
463.9 K, Small sample (50 mg) DSC	128.6
468.9 K, Small sample (50 mg) DSC	129
473.9 K, Small sample (50 mg) DSC	129.1
478.9 K, Small sample (50 mg) DSC	129.3
480 K, Small sample (50 mg) DSC	130.4
483.9 K, Small sample (50 mg) DSC	129.7
488.9 K, Small sample (50 mg) DSC	130.2
493.9 K, Small sample (50 mg) DSC	130.7
498.9 K, Small sample (50 mg) DSC	131.4
500 K, Small sample (50 mg) DSC	131.7
503.9 K, Small sample (50 mg) DSC	131.7
508.9 K, Small sample (50 mg) DSC	132.1
513.9 K, Small sample (50 mg) DSC	132.7
518.9 K, Small sample (50 mg) DSC	132.9
520 K, Small sample (50 mg) DSC	132.9
523.9 K, Small sample (50 mg) DSC	133.1
528.9 K, Small sample (50 mg) DSC	133.7
533.9 K, Small sample (50 mg) DSC	134.6
538.9 K, Small sample (50 mg) DSC	135.3
540 K, Small sample (50 mg) DSC	134
543.9 K, Small sample (50 mg) DSC	135.7
548.9 K, Small sample (50 mg) DSC	136.1
553.9 K, Small sample (50 mg) DSC	136.5
558.9 K, Small sample (50 mg) DSC	136.9
560 K, Small sample (50 mg) DSC	135
563.9 K, Small sample (50 mg) DSC	137.2
568.9 K, Small sample (50 mg) DSC	137.5
573.9 K, Small sample (50 mg) DSC	138
578.9 K, Small sample (50 mg) DSC	138.3
580 K, Small sample (50 mg) DSC	135.8
583.9 K, Small sample (50 mg) DSC	138.2
588.9 K, Small sample (50 mg) DSC	138.1
593.9 K, Small sample (50 mg) DSC	138.4
598.9 K, Small sample (50 mg) DSC	138.7
600 K, Small sample (50 mg) DSC	136.7
603.9 K, Small sample (50 mg) DSC	138.6
608.9 K, Small sample (50 mg) DSC	138.7
613.9 K, Small sample (50 mg) DSC	138.4
618.9 K, Small sample (50 mg) DSC	138.5
620 K, Small sample (50 mg) DSC	137.4
623.9 K, Small sample (50 mg) DSC	138.6
628.9 K, Small sample (50 mg) DSC	138.4
633.9 K, Small sample (50 mg) DSC	136.7
638.9 K, Small sample (50 mg) DSC	135.8
640 K, Small sample (50 mg) DSC	138.1
643.9 K, Small sample (50 mg) DSC	135.7
648.9 K, Small sample (50 mg) DSC	135.9
653.9 K, Small sample (50 mg) DSC	136.3
658.9 K, Small sample (50 mg) DSC	136.4
660 K, Small sample (50 mg) DSC	138.7
663.9 K, Small sample (50 mg) DSC	136.8
668.9 K, Small sample (50 mg) DSC	136.7
673.9 K, Small sample (50 mg) DSC	136.7
678.9 K, Small sample (50 mg) DSC	136.8
680 K, Small sample (50 mg) DSC	139.3
683.9 K, Small sample (50 mg) DSC	136.8
688.9 K, Small sample (50 mg) DSC	136.9
693.9 K, Small sample (50 mg) DSC	137.1
698.9 K, Small sample (50 mg) DSC	137.5
700 K, Small sample (50 mg) DSC	139.9
703.9 K, Small sample (50 mg) DSC	138
708.9 K, Small sample (50 mg) DSC	138.4
713.9 K, Small sample (50 mg) DSC	138.9
718.9 K, Small sample (50 mg) DSC	139.3
720 K, Small sample (50 mg) DSC	140.4
723.9 K, Small sample (50 mg) DSC	139.1
728.9 K, Small sample (50 mg) DSC	139.3
733.9 K, Small sample (50 mg) DSC	139.2
738.9 K, Small sample (50 mg) DSC	139.5
740 K, Small sample (50 mg) DSC	140.8
743.9 K, Small sample (50 mg) DSC	139.8
748.9 K, Small sample (50 mg) DSC	140.3
753.9 K, Small sample (50 mg) DSC	140.6
758.9 K, Small sample (50 mg) DSC	141.1
760 K, Small sample (50 mg) DSC	141.2
763.9 K, Small sample (50 mg) DSC	141.3
768.9 K, Small sample (50 mg) DSC	141.7
773.9 K, Small sample (50 mg) DSC	141.7
778.9 K, Small sample (50 mg) DSC	141.7
780 K, Small sample (50 mg) DSC	141.6
783.9 K, Small sample (50 mg) DSC	141.5
788.9 K, Small sample (50 mg) DSC	141.5
793.9 K, Small sample (50 mg) DSC	141.8
798.9 K, Small sample (50 mg) DSC	142.4
800 K, Small sample (50 mg) DSC	142
803.9 K, Small sample (50 mg) DSC	142.5
808.9 K, Small sample (50 mg) DSC	142.6
813.9 K, Small sample (50 mg) DSC	142.7
818.9 K, Small sample (50 mg) DSC	143.1
820 K, Small sample (50 mg) DSC	142.4
823.9 K, Small sample (50 mg) DSC	143
828.9 K, Small sample (50 mg) DSC	142.9
833.9 K, Small sample (50 mg) DSC	143.1
838.9 K, Small sample (50 mg) DSC	142.9
840 K, Small sample (50 mg) DSC	142.7
843.9 K, Small sample (50 mg) DSC	143.2
848.9 K, Small sample (50 mg) DSC	142.9
853.9 K, Small sample (50 mg) DSC	142.8
858.9 K, Small sample (50 mg) DSC	142.7
860 K, Small sample (50 mg) DSC	143
863.9 K, Small sample (50 mg) DSC	142.4
868.9 K, Small sample (50 mg) DSC	142
873.9 K, Small sample (50 mg) DSC	141.5
878.9 K, Small sample (50 mg) DSC	141.9
880 K, Small sample (50 mg) DSC	143.3
883.9 K, Small sample (50 mg) DSC	141.8
888.9 K, Small sample (50 mg) DSC	141.7
893.9 K, Small sample (50 mg) DSC	141.6
898.9 K, Small sample (50 mg) DSC	141.8
900 K, Small sample (50 mg) DSC	143.6
903.9 K, Small sample (50 mg) DSC	141.5
908.9 K, Small sample (50 mg) DSC	141.4
913.9 K, Small sample (50 mg) DSC	141.7
918.9 K, Small sample (50 mg) DSC	141.8
920 K, Small sample (50 mg) DSC	143.8
923.9 K, Small sample (50 mg) DSC	142.1
928.9 K, Small sample (50 mg) DSC	142.7
933.9 K, Small sample (50 mg) DSC	143
938.9 K, Small sample (50 mg) DSC	142.9
940 K, Small sample (50 mg) DSC	144
943.9 K, Small sample (50 mg) DSC	142.4
948.9 K, Small sample (50 mg) DSC	142.6
953.9 K, Small sample (50 mg) DSC	142.6
958.9 K, Small sample (50 mg) DSC	143.1
960 K, Small sample (50 mg) DSC	144.3
963.9 K, Small sample (50 mg) DSC	142.7
968.9 K, Small sample (50 mg) DSC	142.8
973.9 K, Small sample (50 mg) DSC	142.8
978.9 K, Small sample (50 mg) DSC	142.6
980 K, Small sample (50 mg) DSC	144.5
983.9 K, Small sample (50 mg) DSC	142.5
988.9 K, Small sample (50 mg) DSC	142.5
993.9 K, Small sample (50 mg) DSC	142.6
998.9 K, Small sample (50 mg) DSC	142.9
1000 K, Small sample (50 mg) DSC	144.7
1003.9 K, Small sample (50 mg) DSC	143
1008.9 K, Small sample (50 mg) DSC	143.3
1009 K, Small sample (50 mg) DSC	144.8
